# Assay results from patent US10376520B2, “Methods for the treatment of cardiovascular disorders” (Galapagos NV, priority 2015, dated 2019).
# System: RA patients
# Test: Atherogenic index, Study 2 (RA patients, monotherapy)
# Format: in vivo, human
# Method: As used herein, the term ‘atherogenic index’ refers to
# Double-blind, placebo-controlled, monotherapy study in subjects with moderately to severely active RA who have an inadequate response to methotrexate (MTX) (oral or parenteral).
# Twelve weeks of treatment with Compound 1 (dosed as a [Compound 1:HCl:3H2O]) at 50 mg, 100 mg, or 200 mg q.d.; or placebo. At Week 12, all subjects on placebo and the subjects on the 50 mg dose who have not achieved 20% improvement in swollen joint count (SJC66) and tender joint count (TJC68) will be assigned to 100 mg q.d. in a blinded fashion and will continue treatment until Week 24. Subjects in the other groups will maintain their randomized treatment until Week 24.
# The atherogenic index has been identified to be a good predictor of cardiovascular disorders risks and is calculated as follows: […]
# [1] = Placebo switching to 100 mg q.d., week 16
# [2] = Placebo switching to 100 mg q.d., week 20
# [3] = Placebo switching to 100 mg q.d., week 24
smiles,measurement,setting,value
"O=C(Nc1nc2cccc(-c3ccc(CN4CCS(=O)(=O)CC4)cc3)n2n1)C1CC1 [Compound 1, cyclopropanecarboxylic acid {5-[4-(1,1-dioxo-thiomorpholin-4-ylmethyl)-phenyl]-[1,2,4]triazolo[1,5-a]pyridin-2yl}-amide]",Atherogenic index Median CFB - 12 weeks results,"100 mg q.d., week 4",-0.10 mmol/L
same,Atherogenic index Median CFB - 24 weeks results,"100 mg q.d., week 4",-0.10 mmol/L
same,Atherogenic index Median percentage CFB - 12 weeks results,"100 mg q.d., week 4",−3.65%
same,Atherogenic index Median percentage CFB - 24 weeks results,"100 mg q.d., week 4",−3.65%
same,Atherogenic index Mean CFB - 12 weeks results,"100 mg q.d., week 8",-0.13 mmol/L
same,Atherogenic index Mean percentage CFB - 12 weeks results,"100 mg q.d., week 8",−3.37%
same,Atherogenic index Mean percentage CFB - 24 weeks results,"100 mg q.d., week 8",−3.37%
same,Atherogenic index Median CFB - 12 weeks results,"100 mg q.d., week 8",-0.10 mmol/L
same,Atherogenic index Median CFB - 24 weeks results,"100 mg q.d., week 8",-0.10 mmol/L
same,Atherogenic index Median percentage CFB - 24 weeks results,"100 mg q.d., week 8",−1.45%
same,Atherogenic index Mean CFB - 12 weeks results,"100 mg q.d., week 12",-0.07 mmol/L
same,Atherogenic index Mean percentage CFB - 24 weeks results,"100 mg q.d., week 12",−1.37%
same,Atherogenic index Median CFB - 12 weeks results,"100 mg q.d., week 12",-0.10 mmol/L
same,Atherogenic index Median CFB - 24 weeks results,"100 mg q.d., week 12",-0.10 mmol/L
same,Atherogenic index Median percentage CFB - 12 weeks results,"100 mg q.d., week 12",−2.78%
same,Atherogenic index Median percentage CFB - 24 weeks results,"100 mg q.d., week 12",−2.78%
same,Atherogenic index Mean percentage CFB - 24 weeks results,"100 mg q.d., week 16",−4.43%
same,Atherogenic index Median CFB - 24 weeks results,"100 mg q.d., week 16",-0.20 mmol/L
same,Atherogenic index Median percentage CFB - 24 weeks results,"100 mg q.d., week 16",−4.76%
same,Atherogenic index Mean percentage CFB - 24 weeks results,"100 mg q.d., week 20",−2.50%
same,Atherogenic index Median CFB - 24 weeks results,"100 mg q.d., week 20",0.00 mmol/L
same,Atherogenic index Median percentage CFB - 24 weeks results,"100 mg q.d., week 20",0.00%
same,Atherogenic index Mean percentage CFB - 24 weeks results,"100 mg q.d., week 24",−0.41%
same,Atherogenic index Median CFB - 24 weeks results,"100 mg q.d., week 24",0.00 mmol/L
same,Atherogenic index Median percentage CFB - 24 weeks results,"100 mg q.d., week 24",0.00%
same,Atherogenic index Mean CFB - 12 weeks results,"200 mg q.d., week 1",0.15 mmol/L
same,Atherogenic index Mean percentage CFB - 12 weeks results,"200 mg q.d., week 1",4.43%
same,Atherogenic index Mean percentage CFB - 24 weeks results,"200 mg q.d., week 1",4.43%
same,Atherogenic index Median CFB - 12 weeks results,"200 mg q.d., week 1",0.10 mmol/L
same,Atherogenic index Median CFB - 24 weeks results,"200 mg q.d., week 1",0.10 mmol/L
same,Atherogenic index Median percentage CFB - 12 weeks results,"200 mg q.d., week 1",1.96%
same,Atherogenic index Median percentage CFB - 24 weeks results,"200 mg q.d., week 1",1.96%
same,Atherogenic index Mean CFB - 12 weeks results,"200 mg q.d., week 2",-0.09 mmol/L
same,Atherogenic index Mean percentage CFB - 12 weeks results,"200 mg q.d., week 2",−2.14%
same,Atherogenic index Mean percentage CFB - 24 weeks results,"200 mg q.d., week 2",−2.14%
same,Atherogenic index Median CFB - 12 weeks results,"200 mg q.d., week 2",0.00 mmol/L
same,Atherogenic index Median CFB - 24 weeks results,"200 mg q.d., week 2",0.00 mmol/L
same,Atherogenic index Median percentage CFB - 12 weeks results,"200 mg q.d., week 2",0.00%
same,Atherogenic index Median percentage CFB - 24 weeks results,"200 mg q.d., week 2",0.00%
same,Atherogenic index Mean CFB - 12 weeks results,"200 mg q.d., week 4",-0.18 mmol/L
same,Atherogenic index Mean percentage CFB - 12 weeks results,"200 mg q.d., week 4",−3.89%
same,Atherogenic index Mean percentage CFB - 24 weeks results,"200 mg q.d., week 4",−3.89%
same,Atherogenic index Median CFB - 12 weeks results,"200 mg q.d., week 4",-0.10 mmol/L
same,Atherogenic index Median CFB - 24 weeks results,"200 mg q.d., week 4",-0.10 mmol/L
same,Atherogenic index Median percentage CFB - 12 weeks results,"200 mg q.d., week 4",−3.65%
same,Atherogenic index Median percentage CFB - 24 weeks results,"200 mg q.d., week 4",−3.65%
same,Atherogenic index Mean CFB - 12 weeks results,"200 mg q.d., week 8",-0.16 mmol/L
same,Atherogenic index Mean percentage CFB - 12 weeks results,"200 mg q.d., week 8",−3.33%
same,Atherogenic index Mean percentage CFB - 24 weeks results,"200 mg q.d., week 8",−3.33%
same,Atherogenic index Median CFB - 12 weeks results,"200 mg q.d., week 8",-0.10 mmol/L
same,Atherogenic index Median CFB - 24 weeks results,"200 mg q.d., week 8",-0.10 mmol/L
same,Atherogenic index Median percentage CFB - 12 weeks results,"200 mg q.d., week 8",−3.33%
same,Atherogenic index Median percentage CFB - 24 weeks results,"200 mg q.d., week 8",−3.33%
same,Atherogenic index Mean CFB - 12 weeks results,"200 mg q.d., week 12",-0.04 mmol/L
same,Atherogenic index Mean percentage CFB - 12 weeks results,"200 mg q.d., week 12",0.54%
same,Atherogenic index Mean percentage CFB - 24 weeks results,"200 mg q.d., week 12",0.54%
same,Atherogenic index Median CFB - 12 weeks results,"200 mg q.d., week 12",0.00 mmol/L
same,Atherogenic index Median CFB - 24 weeks results,"200 mg q.d., week 12",0.00 mmol/L
same,Atherogenic index Median percentage CFB - 12 weeks results,"200 mg q.d., week 12",0.00%
same,Atherogenic index Median percentage CFB - 24 weeks results,"200 mg q.d., week 12",0.00%
same,Atherogenic index Mean percentage CFB - 24 weeks results,"200 mg q.d., week 16",0.42%
same,Atherogenic index Median CFB - 24 weeks results,"200 mg q.d., week 16",0.00 mmol/L
same,Atherogenic index Median percentage CFB - 24 weeks results,"200 mg q.d., week 16",0.00%
same,Atherogenic index Mean percentage CFB - 24 weeks results,"200 mg q.d., week 20",−1.40%
same,Atherogenic index Median CFB - 24 weeks results,"200 mg q.d., week 20",-0.20 mmol/L
same,Atherogenic index Median percentage CFB - 24 weeks results,"200 mg q.d., week 20",−3.77%
same,Atherogenic index Mean percentage CFB - 24 weeks results,"200 mg q.d., week 24",0.92%
same,Atherogenic index Median CFB - 24 weeks results,"200 mg q.d., week 24",-0.10 mmol/L
same,Atherogenic index Median percentage CFB - 24 weeks results,"200 mg q.d., week 24",−2.58%
same,Atherogenic index Mean percentage CFB - 24 weeks results,[1],−6.56%
same,Atherogenic index Median CFB - 24 weeks results,[1],-0.20 mmol/L
same,Atherogenic index Median percentage CFB - 24 weeks results,[1],−5.40%
same,Atherogenic index Mean percentage CFB - 24 weeks results,[2],−5.24%
same,Atherogenic index Median CFB - 24 weeks results,[2],-0.30 mmol/L
same,Atherogenic index Median percentage CFB - 24 weeks results,[2],−7.87%
same,Atherogenic index Mean percentage CFB - 24 weeks results,[3],−3.22%
same,Atherogenic index Median CFB - 24 weeks results,[3],-0.10 mmol/L
same,Atherogenic index Median percentage CFB - 24 weeks results,[3],−3.57%
